In publication PMC8504577, “Evaluation of a Clinically Relevant Drug–Drug Interaction Between Rosuvastatin and Clopidogrel and the Risk of Hepatotoxicity” (Frontiers in Pharmacology, 2021):
Like-named read-outs stand apart in the source and are kept apart here.

Experiments:
BCRP [1] = target: T1, BCRP (Homo sapiens, UniProt Q9UNQ0); conditions: CP at 75 and 300 mg
T1 sequence (Q9UNQ0 1-655): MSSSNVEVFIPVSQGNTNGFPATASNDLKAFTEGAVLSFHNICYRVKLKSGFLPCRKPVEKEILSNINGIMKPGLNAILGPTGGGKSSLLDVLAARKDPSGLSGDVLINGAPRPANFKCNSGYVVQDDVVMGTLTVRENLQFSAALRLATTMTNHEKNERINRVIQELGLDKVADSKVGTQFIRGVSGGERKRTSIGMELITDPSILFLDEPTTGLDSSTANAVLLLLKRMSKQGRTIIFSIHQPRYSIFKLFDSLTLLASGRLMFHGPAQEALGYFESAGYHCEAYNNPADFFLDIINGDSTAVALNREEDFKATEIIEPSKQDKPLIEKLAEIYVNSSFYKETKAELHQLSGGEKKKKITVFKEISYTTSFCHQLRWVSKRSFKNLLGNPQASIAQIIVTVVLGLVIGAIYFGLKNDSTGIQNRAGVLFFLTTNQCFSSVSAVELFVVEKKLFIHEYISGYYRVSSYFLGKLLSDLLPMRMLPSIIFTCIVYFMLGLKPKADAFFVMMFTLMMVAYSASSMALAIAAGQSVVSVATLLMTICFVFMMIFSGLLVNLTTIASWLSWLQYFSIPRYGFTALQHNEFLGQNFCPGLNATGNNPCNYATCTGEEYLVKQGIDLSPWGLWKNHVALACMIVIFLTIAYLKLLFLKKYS

BCRP [2] = target: T1, BCRP; experiment: Inhibition of RSV transport in BCRP-expressing membrane vesicles; type: biochemical; set-up: purchased GenoMembrane Co., Ltd. (Yokohama, Japan) GM0008; host or cells: Sf9 insect cells
Method: The vesicular transport activity was determined by the 96-well rapid filtration method in BCRP- and MRP2-expressing membrane vesicles. […] Meanwhile, 5 μL RSV (final concentration, 1 μM) and 20 μL reagent C2 were pre-incubated at 37°C for 5 min. Then, the transport was initiated by mixing them in a 50 μL reaction system and incubated for the designated time at 37°C. The transport was terminated by adding 200 μL of cold buffer B2 at 4°C. Then, the mixture was filtered using a 96-well filter plate. After washing the vesicles five times with 200 μL of cold buffer B2 at 4°C, the vesicles were lysed with 50 μL of 80% […] twice and then centrifuged at 2000 rpm/min for 2 min. Lysates were collected and then centrifuged at 12,000 rpm/min for 5 min. The supernatants were injected onto the LC-MS/MS. The same procedures were applied to AMP-containing samples except that reagent D2 was used instead of reagent C2. All experiments were performed in quadruplicate.
Statistical analysis was performed using SPSS ver. 22.0 (IBM, Chicago, IL, United States).

OATP1B1 = conditions: cited from earlier work
[3] = cited from earlier work; for I1, peak plasma concentration at steady state: ref Itkonen et al. (2015)
BCRP [4] = conditions: read-out: IC50 BCRP; BCRP-mediated RSV transport, membrane vesicles; ref Varma et al. (2019); cited from earlier work
BCRP [5] = conditions: read-out: IC50 BCRP; BCRP-mediated RSV transport, Caco-2 cells; ref Elsby et al. (2016); cited from earlier work
[6] = Hepatobiliary transport study in rats; type: in vivo, Sprague-Dawley rats; conditions: for Tmax / Kp / Cmax / AUC(0-t): Sprague-Dawley, rat; for Tmax / Cmax / AUC(0-t): 5 mg/kg; for Kp: liver/plasma, read-out: Liver AUC0-5min/Plasma AUC0-5min; for AUC(0-t): read-out: Plasma AUC0-5min (converted); for CLint,bile / CLuptake,liver: integration plot method
Method: For the hepatobiliary transport study, 24 rats were randomly assigned into eight groups (n = 3, each group, groups V to XII) and they received a p.o. dose as oral gavage of CP (27 mg/kg) for 20 days. The remaining 24 rats were also randomly assigned into eight groups (n = 3, each group, groups XIII to XX) and received the same volume of vehicle control for 20 days. […] On day 21, rats were anesthetized and incised along the abdominal midline, and bile duct intubation was performed prior to drug administration. […] Rats were euthanized at 0.25, 0.47, 0.67, 1, 1.5, 2, 2.5, and 5 min post dose. Arterial blood, bile, and liver samples were collected.
Supplementary Table 2. Pharmacokinetic parameters of hepatobiliary transport study in rats. (n= 3) RSV CLuptake,liver and CLint,bile were calculated by integration plot methods.^[1, 2]

[7] = human, ref Pinheiro et al., 2012, Remsberg et al., 2013, cited from earlier work
[8] = in 5 days after p.o. administration, ref Sanofi-Aventis, 2011
[9] = plasma, iv, i.v. RSV 5 mg/kg, with DDI (multiple p.o. CP 27 mg/kg)
[10] = plasma, iv, i.v. RSV 5 mg/kg, without DDI
[11] = i.v. RSV 5 mg/kg, with DDI (multiple p.o. CP 27 mg/kg)

COC(=O)[C@H](c1ccccc1Cl)N1CCc2sccc2C1 [CP, clopidogrel]
[I2]/IC50 BCRP ratio (BCRP [1]): > 10
IC50 (BCRP [2]; IC50 BCRP-mediated RSV transport, 1 μM RSV, membrane vesicles): ~0.001 µM
inhibition at 0.001 μM (BCRP [2]; human): 56.9%
IC50 (OATP1B1; substrate cerivastatin, ref Tamraz et al. (2013), read-out: IC50 OTAP1B1 (cerivastatin, CER, as substrate)): 3.95 µM
IC50 (OATP1B1; substrate estradiol 17β-glucuronide, ref Elsby et al. (2016), read-out: IC50 OTAP1B1 (estradiol 17β-glucuronide, e17βG, as substrate)): 1.8 µM
I1, peak plasma concentration at steady state ([3]; 75 mg CP): 0.0010 [Itkonen et al. (2015)] μM
I1, peak plasma concentration at steady state ([3]; 300 mg CP): 0.0089 [Itkonen et al. (2015)] μM
Absorbed CP converted into inactive carboxylic acid metabolites (CPC) by CES1 in the liver ([3]; at least, ref Jiang et al., 2015): 85–90%
Excreted as inactive metabolites via feces [3, 8]: ~46%
Excreted as inactive metabolites via urine [3, 8]: ~50%
CP undergoing two-step oxidization by CYP enzymes to active metabolite ([3]; ref Jiang et al., 2015): About 2%
Elimination half-life ([3]; ref Sanofi-Aventis, 2011): 360 min
IC50 (BCRP [4]): 104 µM
IC50 (BCRP [5]): 63 µM

CC(C)c1nc(N(C)S(C)(=O)=O)nc(-c2ccc(F)cc2)c1/C=C/[C@@H](O)C[C@@H](O)CC(=O)O [RSV, rosuvastatin]
Tmax ([6]; liver, iv, i.v. RSV 5 mg/kg, with DDI (multiple p.o. CP 27 mg/kg), read-out: Liver Tmax (converted)): 1.72 min
Tmax ([6]; liver, iv, i.v. RSV 5 mg/kg, without DDI, read-out: Liver Tmax (converted)): 2 min
Kp ([6]; intravenous, i.v. RSV 5 mg/kg, with DDI (multiple p.o. CP 27 mg/kg)): 1.38 ± 0.13
Kp ([6]; iv, i.v. RSV 5 mg/kg, without DDI): 1.72 ± 0.18
Cmax [6, 9]: 56 ± 9.15 µg/mL
AUC(0-t) [6, 9]: 1.71 µg·h/mL
Tmax ([6]; plasma, iv, i.v. RSV 5 mg/kg, with DDI (multiple p.o. CP 27 mg/kg), read-out: Plasma Tmax (converted)): 0.36 min
Cmax [6, 10]: 62.1 ± 24.2 µg/mL
AUC(0-t) [6, 10]: 1.19 µg·h/mL
Tmax ([6]; plasma, iv, i.v. RSV 5 mg/kg, without DDI, read-out: Plasma Tmax (converted)): 0.31 min
Bile0-5min (with DDI/without DDI)% ([6]; i.v. RSV 5 mg/kg): 84.95%
Bile0-5min/Liver AUC0-5min (with DDI/without DDI)% ([6]; i.v. RSV 5 mg/kg): 73.81%
CLint,bile (with DDI/without DDI)% ([6]; i.v. RSV 5 mg/kg): 60.81%
CLuptake,liver (with DDI/without DDI)% ([6]; i.v. RSV 5 mg/kg): 47.62%
Liver AUC0-5min (with DDI/without DDI)% ([6]; i.v. RSV 5 mg/kg): 115.37%
Liver AUC0-5min/Plasma AUC0-5min (with DDI/without DDI)% ([6]; i.v. RSV 5 mg/kg): 80.23%
Liver Cmax (with DDI/without DDI)% ([6]; i.v. RSV 5 mg/kg): 94.79%
Liver Tmax (with DDI/without DDI)% ([6]; i.v. RSV 5 mg/kg): 86.00%
Plasma AUC0-5min (with DDI/without DDI)% ([6]; i.v. RSV 5 mg/kg): 143.73%
Plasma Cmax (with DDI/without DDI)% ([6]; i.v. RSV 5 mg/kg): 90.18%
Plasma Tmax (with DDI/without DDI)% ([6]; i.v. RSV 5 mg/kg): 116.13%
Bile0-5min [6, 11]: 218.80 ± 138.59 µg
Bile0-5min/Liver AUC0-5min [6, 11]: 1.55 ± 0.98 g/min
Liver AUC0-5min [6, 11]: 141196.71 ± 13631.53 ng·min/g
Liver Cmax [6, 11]: 36840.00 ± 1304.15 ng/g
CLint,bile [6, 11]: 1.80 ± 1.10 g/min
CLuptake,liver [6, 11]: 0.40 ± 0.15 mL/min/g
Bile0-5min ([6]; i.v. RSV 5 mg/kg, without DDI): 257.57 ± 104.42 µg
Bile0-5min/Liver AUC0-5min ([6]; i.v. RSV 5 mg/kg, without DDI): 2.10 ± 0.85 g/min
Liver AUC0-5min ([6]; i.v. RSV 5 mg/kg, without DDI): 122384.16 ± 13075.60 ng·min/g
Liver Cmax ([6]; i.v. RSV 5 mg/kg, without DDI): 38866.67 ± 3503.67 ng/g
CLint,bile ([6]; i.v. RSV 5 mg/kg, without DDI): 2.96 ± 1.50 g/min
CLuptake,liver ([6]; i.v. RSV 5 mg/kg, without DDI): 0.84 ± 0.45 mL/min/g
Decrease of RSV CLint,bile in presence of CP ([6]; i.v. RSV, not significant): 39.19%
Decrease of RSV CLuptake,liver in presence of CP ([6]; i.v. RSV, not significant): 52.38%
Decrease of RSV bile0–5min/liver AUC0–5min in presence of CP ([6]; i.v. RSV, not significant): 26.19%
Decrease of RSV liver AUC0–5min/plasma AUC0–5min in presence of CP ([6]; i.v. RSV, not significant): 19.77%
Increase of RSV AUC with concomitant CP ([7]; 20 mg RSV): 2.0 fold
Increase of RSV Cmax with concomitant CP ([7]; 20 mg RSV): 2.2 fold
Increase of RSV AUC with concomitant CP ([7]; 40 mg RSV): 1.7 fold
Increase of RSV Cmax with concomitant CP ([7]; 40 mg RSV): 1.3 fold
